Test results published in patent US11414384B2, “P300/CBP hat inhibitors” (Constellation Pharmaceuticals, Inc., priority 2018, dated 2022).

Each compound was assayed against p300 HAT domain (residues 1287-1666) (Homo sapiens (Human), UniProt Q09472) (assay: p300 HAT SPA assay (scintillation proximity assay, acetylation of biotinylated H3(1-21) peptide)). Conditions: P300 HAT SPA IC50, p300 HAT domain; average of at least 2 replicate titrations.
Assay type: biochemical
Protocol: In a typical experiment the p300 HAT inhibitory activity of the compounds described herein was determined in accordance with the following experimental method.
The expressed protein was purified by Ni2+ affinity, followed by anion exchange chromatography. Appropriate fractions were pooled and buffer exchanged into 20 mM Hepes pH 7.5, 150 mM NaCl, and 1 mM TCEP.
35 μL of the reaction volume was transferred to a 384-well streptavidin FlashPlate (PerkinElmer) using a Bravo liquid handler (Velocity 11) and incubated for 1.5 hr at RT. […] Data were analyzed in Genedata to determine inhibitor IC50 values.

p300 HAT domain (residues 1287-1666), sequence (Q09472 1287-1666): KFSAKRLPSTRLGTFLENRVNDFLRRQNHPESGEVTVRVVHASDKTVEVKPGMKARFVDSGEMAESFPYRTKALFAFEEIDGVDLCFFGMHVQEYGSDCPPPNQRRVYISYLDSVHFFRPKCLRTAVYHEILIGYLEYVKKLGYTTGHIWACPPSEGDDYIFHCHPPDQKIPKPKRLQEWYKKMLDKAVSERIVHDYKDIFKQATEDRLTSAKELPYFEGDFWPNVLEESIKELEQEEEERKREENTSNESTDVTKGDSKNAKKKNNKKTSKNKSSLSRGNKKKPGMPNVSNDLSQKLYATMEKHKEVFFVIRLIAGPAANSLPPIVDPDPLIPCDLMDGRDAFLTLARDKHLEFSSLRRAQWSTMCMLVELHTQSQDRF

SMILES	IC50 [nM]
COCCn1cc(C(=O)C(NCCc2ccc(Cl)cc2)c2ccccc2)c2ccccc21 (single isomer, unassigned) [127 Isomer 1]	> 60000
O=C(c1cn(CCO)c2ccccc12)C(NCCc1ccc(Cl)cc1)c1ccccc1 (single isomer, unassigned) [128 Isomer 1]	42100
O=C(c1cn(CCO)c2ccccc12)C(NCCc1ccc(Cl)cc1)c1ccccc1 (single isomer, unassigned) [128 Isomer 2]	13400
CCn1cc(C(=O)C(NCCc2ccc(Cl)cc2)c2ccccc2)c2ccccc21 (single isomer, unassigned) [129 Isomer 1]	11800
CCn1cc(C(=O)C(NCCc2ccc(Cl)cc2)c2ccccc2)c2ccccc21 (single isomer, unassigned) [129 Isomer 2]	1810
O=C(c1cn(CC(F)(F)F)c2ccccc12)C(NCCc1ccc(Cl)cc1)c1ccccc1 (single isomer, unassigned) [130 Isomer 1]	> 60000

Same assay, conditions: p300 HAT domain; average of at least 2 replicate titrations; read-out: P300 HAT SPA IC50

SMILES	IC50 [nM]
N#Cc1ccc(CCNC(C(=O)c2cnn3cc(-c4cn[nH]c4)ccc23)c2ccccc2)cc1 (single isomer, unassigned) [99 Isomer 1]	212
Cn1cc(-c2ccc3c(C(=O)C(NCCc4ccc(S(N)(=O)=O)cc4)c4ccccc4)cnn3c2)cn1 (single isomer, unassigned) [101 Isomer 1]	166
CC(CNC(C(=O)c1cnn2cc(-c3cnn(C)c3)ccc12)c1ccccc1)c1ccc(C#N)cc1 (single isomer, unassigned) [102 Isomer 1]	1880
CC(CNC(C(=O)c1cnn2cc(-c3cnn(C)c3)ccc12)c1ccccc1)c1ccc(C#N)cc1 (single isomer, unassigned) [102 Isomer 2]	239
CC(CNC(C(=O)c1cnn2cc(-c3cnn(C)c3)ccc12)c1ccccc1)c1ccc(C#N)cc1 (single isomer, unassigned) [102 Isomer 3]	212
CN1CCN(c2ccc3c(C(=O)C(NCCc4ccc(C#N)cc4)c4ccccc4)c[nH]c3n2)CC1 (single isomer, unassigned) [121 Isomer 1]	2200
CN1CCN(c2ccc3c(C(=O)C(NCCc4ccc(S(N)(=O)=O)cc4)c4ccccc4)c[nH]c3c2)CC1 (single isomer, unassigned) [124 Isomer 1]	> 5000
N#Cc1ccc(CCNC(C(=O)c2c[nH]c3cc(N4CCCC4)ccc23)c2ccccc2)cc1 (single isomer, unassigned) [125 Isomer 1]	> 2000
N#Cc1ccc(CCNC(C(=O)c2c[nH]c3cc(N4CCCC4)ccc23)c2ccccc2)cc1 (single isomer, unassigned) [125 Isomer 2]	224
CN1CCC(Oc2ccc3c(C(=O)C(NCCc4ccc(C#N)cc4)c4ccccc4)c[nH]c3c2)CC1 (single isomer, unassigned) [126 Isomer 1]	2840
CN(C)C(=O)c1ccc(CCNC(C(=O)c2c[nH]c3ccccc23)c2ccccc2)cc1 (single isomer, unassigned) [135 Isomer 1]	> 60000
CNC(=O)Cc1ccc(CCNC(C(=O)c2c[nH]c3ccccc23)c2ccccc2)cc1 (single isomer, unassigned) [136 Isomer 1]	8690
CNC(=O)Cc1ccc(CCNC(C(=O)c2c[nH]c3ccccc23)c2ccccc2)cc1 (single isomer, unassigned) [136 Isomer 2]	> 60000
CN(C)C(=O)Cc1ccc(CCNC(C(=O)c2c[nH]c3ccccc23)c2ccccc2)cc1 (single isomer, unassigned) [137 Isomer 1]	21800
CN(C)C(=O)Cc1ccc(CCNC(C(=O)c2c[nH]c3ccccc23)c2ccccc2)cc1 (single isomer, unassigned) [137 Isomer 2]	> 60000

More lines, now with the values ahead:

IC50 [nM]	SMILES
2220	CC(Cc1ccc(Cl)cc1)NC(C(=O)c1c[nH]c2cc(-c3cnn(C)c3)ccc12)c1ccccc1 (single isomer, unassigned) [92 Isomer 4]
816	N#Cc1ccc(CCNC(C(=O)c2c[nH]c3cc(-c4cnn(CCO)c4)ccc23)c2ccccc2)cc1 (single isomer, unassigned) [95 Isomer 1]
182	COCCn1cc(-c2ccc3c(C(=O)C(NCCc4ccc(C#N)cc4)c4ccccc4)c[nH]c3c2)cn1 (single isomer, unassigned) [96 Isomer 1]
493	N#Cc1ccc(CCNC(C(=O)c2c[nH]c3cc(-c4cn[nH]c4)ccc23)c2ccccc2)cc1 (single isomer, unassigned) [98 Isomer 1]
3410	Cn1cc(-c2ccc3c(C(=O)C(NCCc4ccc(C#N)cc4)c4ccccc4)c[nH]c3c2F)cn1 (single isomer, unassigned) [103 Isomer 1]
> 5000	Cn1cc(-c2ccc3c(C(=O)C(NCCc4ccc(Cl)cc4)c4ccccc4)c[nH]c3c2)nn1 (single isomer, unassigned) [104 Isomer 1]
388	Cn1cc(-c2ccc3c(C(=O)C(NCCc4ccc(Cl)cc4)c4ccccc4)c[nH]c3c2)nn1 (single isomer, unassigned) [104 Isomer 2]
> 30000	O=C(c1c[nH]c2cc(-c3ccccn3)ccc12)C(NCCc1ccc(F)cc1)c1ccccc1 (single isomer, unassigned) [105 Isomer 1]
755	Cn1cnc(-c2ccc3c(C(=O)C(NCCc4ccc(Cl)cc4)c4ccccc4)c[nH]c3c2)c1 (single isomer, unassigned) [106 Isomer 1]
283	Cn1cnc(-c2ccc3c(C(=O)C(NCCc4ccc(Cl)cc4)c4ccccc4)c[nH]c3c2)c1 (single isomer, unassigned) [106 Isomer 2]
1900	Cc1nnc(-c2ccc3c(C(=O)C(NCCc4ccc(Cl)cc4)c4ccccc4)c[nH]c3c2)o1 (single isomer, unassigned) [107 Isomer 1]
3280	Cc1nnc(-c2ccc3c(C(=O)C(NCCc4ccc(Cl)cc4)c4ccccc4)c[nH]c3c2)o1 (single isomer, unassigned) [107 Isomer 2]
2640	O=C(c1c[nH]c2cc(-c3ccccn3)ccc12)C(NCCc1ccc(Cl)cc1)c1ccccc1 (single isomer, unassigned) [108 Isomer 2]
2660	Cc1cnc(-c2ccc3c(C(=O)C(NCCc4ccc(Cl)cc4)c4ccccc4)c[nH]c3c2)[nH]1 (single isomer, unassigned) [109 Isomer 1]
2010	Cc1ncc(-c2ccc3c(C(=O)C(NCCc4ccc(Cl)cc4)c4ccccc4)c[nH]c3c2)[nH]1 (single isomer, unassigned) [110 Isomer 1]
1150	O=C(c1c[nH]c2cc(-c3ccncn3)ccc12)C(NCCc1ccc(Cl)cc1)c1ccccc1 (single isomer, unassigned) [111 Isomer 1]

IC50 [nM]	SMILES
556	O=C(c1c[nH]c2cc(-c3ccncn3)ccc12)C(NCCc1ccc(Cl)cc1)c1ccccc1 (single isomer, unassigned) [111 Isomer 2]
2030	O=C(c1c[nH]c2cc(-c3cccnn3)ccc12)C(NCCc1ccc(Cl)cc1)c1ccccc1 (single isomer, unassigned) [112 Isomer 1]
1110	Cn1cnc(-c2ccc3c(C(=O)C(NCCc4ccc(C#N)cc4)c4ccccc4)c[nH]c3c2)c1 (single isomer, unassigned) [113 Isomer 1]
558	Cn1cc(-c2ccc3c(C(=O)C(NCCc4ccc(C#N)cc4)c4ccccc4)c[nH]c3c2)nn1 (single isomer, unassigned) [114 Isomer 1]
1490	Cn1cnc(-c2ccc3c(C(=O)C(NCCc4ccc(S(N)(=O)=O)cc4)c4ccccc4)c[nH]c3c2)c1 (single isomer, unassigned) [115 Isomer 1]
> 5000	Cn1cc(-c2ccc3c(C(=O)C(NCCc4ccc(S(N)(=O)=O)cc4)c4ccccc4)c[nH]c3c2)nn1 (single isomer, unassigned) [116 Isomer 1]
> 30000	O=C(c1c[nH]c2cc(-n3ccnc3)ccc12)C(NCCc1ccc(F)cc1)c1ccccc1 (single isomer, unassigned) [117 Isomer 2]
> 30000	O=C(c1c[nH]c2cc(-n3cccn3)ccc12)C(NCCc1ccc(F)cc1)c1ccccc1 (single isomer, unassigned) [118 Isomer 1]
> 5000	NS(=O)(=O)c1ccc(CCNC(C(=O)c2c[nH]c3cc(-n4ccnc4)ccc23)c2ccccc2)cc1 (single isomer, unassigned) [119 Isomer 1]
325	CN1CCN(c2ccc3c(C(=O)C(NCCc4ccc(C#N)cc4)c4ccccc4)c[nH]c3c2)CC1 (single isomer, unassigned) [122 Isomer 1]
7610	CN1CCN(c2ccc3c(C(=O)C(NCCc4ccc(F)cc4)c4ccccc4)c[nH]c3c2)CC1 (single isomer, unassigned) [123 Isomer 1]
> 30000	CNC(=O)c1ccc(CCN[C@H](C(=O)c2c[nH]c3cc(-c4cnn(C)c4)ccc23)c2ccccc2)cc1 (single isomer, unassigned) [131 Isomer 1]
17900	O=C(O)c1ccc(CCNC(C(=O)c2c[nH]c3ccccc23)c2ccccc2)cc1 (single isomer, unassigned) [132 Isomer 2]
22900	NC(=O)c1ccc(CCNC(C(=O)c2c[nH]c3ccccc23)c2ccccc2)cc1 (single isomer, unassigned) [133 Isomer 1]
> 60000	CNC(=O)c1ccc(CCNC(C(=O)c2c[nH]c3ccccc23)c2ccccc2)cc1 (single isomer, unassigned) [134 Isomer 1]

Same assay, conditions: read-out: P300 HAT SPA IC50; p300 HAT domain; average of at least 2 replicate titrations

SMILES	IC50 [nM]
COCCn1cc(C(=O)C(NCCc2ccc(Cl)cc2)c2ccccc2)c2ccccc21 (single isomer, unassigned) [127 Isomer 2]	> 60000
O=C(c1cn(CC(F)(F)F)c2ccccc12)C(NCCc1ccc(Cl)cc1)c1ccccc1 (single isomer, unassigned) [130 Isomer 2]	> 60000
